This passage reports IC50 results from US11932624B2, “MDM2 degraders and uses thereof” (Kymera Therapeutics, Inc., priority 2020, dated 2024).

Broadly, the IC50 is the concentration needed to halve the response being measured.

For the experiment, the system named is RS411 cells. The experiment is described as follows: Cell Viability CTG Assay (CellTiter Glo) in RS411 cells. Format: cell-based. Particulars: Homo sapiens. The method in brief: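 RS411 cells at 1000 cells/well were exposed to compound (top final 10 μM, 3-fold, 11 doses; 0.2% DMSO) at 37 °C, 5% CO2 for 1-4 days. Viability was read by CellTiter Glo luminescence after 10 min at RT. IC50 is reported as letter-code bins.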

As to `Cn1c(=O)n(C2CCC(=O)NC2=O)c2ccc(CCC3CCN(C(=O)c4coc([C@@H]5NC6(CCCCC6)[C@@]6(C(=O)Nc7cc(Cl)ccc76)[C@H]5c5cccc(Cl)c5F)n4)CC3)cc21` (stereo partly drawn) [I-165], the IC50 (RS4-11, 24 h, duration 1 day) is > 1000 nM.
Consider `COc1cc2c(cc1OC(C)C)C(c1ccc(Cl)cc1)N(c1ccc(N(C)C[C@H]3CC[C@H](N4CCC(CCc5ccc6c(c5)n(C)c(=O)n6C5CCC(=O)NC5=O)CC4)CC3)cc1)C(=O)C2` (stereo partly drawn) [I-194], for which the IC50 (RS4-11, 24 h, duration 1 day) is < 50 nM.
Still for that read-out and setting: the same measure for `Cn1c(=O)n(C2CCC(=O)NC2=O)c2ccc(CCCN3CCN(C[C@H]4CC[C@H](NC(=O)[C@@H]5NC6(CCC(C)(C)CC6)[C@@]6(C(=O)Nc7cc(Cl)ccc76)[C@H]5c5ccnc(Cl)c5F)CC4)CC3)cc21` (stereo partly drawn) [I-147]: < 50 nM.
Still for that read-out and setting: the same measure for `Cn1c(=O)n(C2CCC(=O)NC2=O)c2cccc(C3CCN(C(=O)[C@H]4CC[C@H](NC(=O)[C@@H]5NC6(CCC(C)(C)CC6)[C@@]6(C(=O)Nc7cc(Cl)ccc76)[C@H]5c5cccc(Cl)c5F)CC4)CC3)c21` (stereo partly drawn) [I-137]: < 50 nM; for `COc1cc2c(cc1OC(C)C)C(c1ccc(Cl)cc1)N(c1ccc(N(C)C[C@H]3CC[C@H](N(C)CCc4ccc5c(c4)n(C)c(=O)n5C4CCC(=O)NC4=O)CC3)cc1)C(=O)C2` (stereo partly drawn) [I-195]: > 1000 nM.
`CNC(=O)c1ccc(N2C(=O)[C@H]3[C@H](c4cccc(Cl)c4F)[C@@](C#N)(c4ccc(Cl)cc4F)[C@H](CC(C)(C)C)N3C2CCCCCCCC#Cc2ccc3c(c2)n(C)c(=O)n3C2CCC(=O)NC2=O)c(OC)c1` (stereo partly drawn) [I-213, 4-[(5S,6R,7S,7aR)-7-(3-chloro-2-fluoro-phenyl)-6-(4-chloro-2-fluoro-phenyl)-6-cyano-5-(2,2-dimethylpropyl)-3-[9-[1-(2,6-dioxo-3-piperidyl)-3-methyl-2-oxo-benzimidazol-5-yl]non-8-ynyl]-1-oxo-3,5,7,7a-tetrahydropyrrolo[1,2-c]imidazol-2-yl]-3-methoxy-N-methyl-benzamide]: the IC50 (RS4-11, 24 h, duration 1 day) is > 1000 nM.
On the same count and under the same terms, the same measure for `Cn1c(=O)n(C2CCC(=O)NC2=O)c2ccc(CCCCCNC(=O)[C@H]3CC[C@H](NC(=O)[C@@H]4NC5(CCC(C)(C)CC5)[C@@]5(C(=O)Nc6cc(Cl)ccc65)[C@H]4c4ccnc(Cl)c4F)CC3)cc21` (stereo partly drawn) [I-151]: 100 to 500 nM; for `COc1cc2c(cc1OC(C)C)[C@H](c1ccc(Cl)cc1)N(c1ccc(N(C)CC3CCN(C(=O)CCCc4ccc5c(c4)n(C)c(=O)n5C4CCC(=O)NC4=O)CC3)cc1)C(=O)C2` (stereo partly drawn) [I-182]: < 50 nM; for `Cn1c(=O)n(C2CCC(=O)NC2=O)c2ccc(C#CCCN3CCN(C(=O)[C@H]4CC[C@H](NC(=O)[C@@H]5NC6(CCCCC6)[C@@]6(C(=O)Nc7cc(Cl)ccc76)[C@H]5c5cccc(Cl)c5F)CC4)CC3)cc21` (stereo partly drawn) [I-136]: < 50 nM.
The same measure, in the same setting: the same measure for `COc1cc2c(cc1OC(C)C)C(c1ccc(Cl)cc1)N(c1ccc(N(C)C[C@H]3CC[C@H](N4CCN(CCCCCc5ccc6c(c5)n(C)c(=O)n6C5CCC(=O)NC5=O)C(=O)C4)CC3)cc1)C(=O)C2` (stereo partly drawn) [I-193]: < 50 nM; for `CC1(C)CCC2(CC1)NC(C(=O)N[C@H]1CC[C@H](CN3CCN(CCC#Cc4cccn5c(N6CCC(=O)NC6=O)cnc45)CC3)CC1)[C@H](c1ccnc(Cl)c1F)[C@]21C(=O)Nc2cc(Cl)ccc21` (stereo partly drawn) [I-203]: < 50 nM; for `Cn1c(=O)n(C2CCC(=O)NC2=O)c2cccc(CCN3CC4(CCN(C(=O)c5ccc(NC(=O)[C@@H]6NC7(CCCCC7)[C@@]7(C(=O)Nc8cc(Cl)ccc87)[C@H]6c6cccc(Cl)c6F)cc5)CC4)C3)c21` (stereo partly drawn) [I-61]: < 50 nM.
Still for that read-out and setting: for `Cn1c(=O)n(C2CCC(=O)NC2=O)c2cccc(C#CC3CCN(C[C@H]4CC[C@H](CNC(=O)[C@@H]5NC6(CCCCC6)[C@@]6(C(=O)Nc7cc(Cl)ccc76)[C@H]5c5cccc(Cl)c5F)CC4)CC3)c21` (stereo partly drawn) [I-140] the value was 500 to 1000 nM.
Take `Cn1c(=O)n(C2CCC(=O)NC2=O)c2ccc(CCCCCNC(=O)c3ccc(NC(=O)[C@@H]4NC5(CCCCC5)[C@@]5(C(=O)Nc6cc(Cl)ccc65)[C@H]4c4cccc(Cl)c4F)cc3)cc21` (stereo partly drawn) [I-97]: the 50% inhibitory concentration (IC50) (RS4-11, 24 h, duration 1 day) was < 50 nM.
Consider `Cn1c(=O)n(C2CCC(=O)NC2=O)c2ccc(CCN3CCN(C(=O)[C@H]4CC[C@H](NC(=O)[C@@H]5NC6(CCCCC6)[C@@]6(C(=O)Nc7cc(Cl)ccc76)[C@H]5c5cccc(Cl)c5F)CC4)CC3)cc21` (stereo partly drawn) [I-180], for which, for the setting “RS4-11, 24 h, duration 1 day”, the IC50 was < 50 nM.
Take `Cn1c(=O)n(C2CCC(=O)NC2=O)c2ccc(C#CC3CCN(C[C@H]4CC[C@H](NC(=O)[C@@H]5NC6(CCCCC6)[C@@]6(C(=O)Nc7cc(Cl)ccc76)[C@H]5c5cccc(Cl)c5F)CC4)CC3)cc21` (stereo partly drawn) [I-70]: where the note is “RS4-11, 24 h, duration 1 day”, the IC50 is < 50 nM.
Still for that read-out and setting: the same measure for `CN(C(=O)c1ccc(NC(=O)[C@@H]2NC3(CCCCC3)[C@@]3(C(=O)Nc4cc(Cl)ccc43)[C@H]2c2cccc(Cl)c2F)cc1)C1CCC2(CC1)CC(Cc1cccc3c1n(C)c(=O)n3C1CCC(=O)NC1=O)C2` (stereo partly drawn) [I-45]: 100 to 500 nM; for `CN1[C@@H](C(=O)N[C@H]2C[C@@](C)(O)C2)[C@H](c2cccc(Cl)c2F)[C@]2(C(=O)N(CCCCCCCC#Cc3ccc4c(c3)n(C)c(=O)n4C3CCC(=O)NC3=O)c3cc(Cl)ccc32)C12CCCCC2` (stereo partly drawn) [I-124]: > 1000 nM; for `COc1cc2c(cc1OC(C)C)C(c1ccc(Cl)cc1)N(c1ccc(N(C)C[C@H]3CC[C@H](N(C)CCCCCc4cccc5c4n(C)c(=O)n5C4CCC(=O)NC4=O)CC3)cc1)C(=O)C2` (stereo partly drawn) [I-87]: < 50 nM.
With `Cn1c(=O)n(C2CCC(=O)NC2=O)c2ccc(C#CC3CCN(C(=O)c4ccc(NC(=O)[C@@H]5NC6(CCC(C)(C)CC6)[C@@]6(C(=O)Nc7cc(Cl)ccc76)[C@H]5c5cccc(Cl)c5F)cc4)CC3)cc21` (stereo partly drawn) [I-76], the IC50 (RS4-11, 24 h, duration 1 day) fell in the range of 100 to 500 nM.
For `COc1cc2c(cc1OC(C)C)[C@@H](c1ccc(Cl)cc1)N(c1ccc(N(C)CC3CCN(CCCCCCc4ccc5c(c4)n(C)c(=O)n5C4CCC(=O)NC4=O)CC3)cc1)C(=O)C2` (stereo partly drawn) [I-197], the concentration for half-maximal inhibition (IC50) (RS4-11, 24 h, duration 1 day) was > 1000 nM.
Regarding `CN(CCCCCc1ccc2c(c1)n(C)c(=O)n2C1CCC(=O)NC1=O)Cc1ccc(NC(=O)[C@@H]2NC3(CCCCC3)[C@@]3(C(=O)Nc4cc(Cl)ccc43)[C@H]2c2cccc(Cl)c2F)c2c1OCCO2` (stereo partly drawn) [I-210], under “RS4-11, 24 h, duration 1 day”, the IC50 was < 50 nM.
As for `COc1cc(C(=O)NCCCOCCCN)ccc1NC(=O)[C@@H]1N[C@@H](CC(C)(C)C)[C@](C#N)(c2ccc(Cl)cc2F)[C@H]1c1cccc(Cl)c1F` [I-7], the IC50 (RS4-11, 96 h, duration 4 days) is > 1000 nM.
Turning to `Cn1c(=O)n(C2CCC(=O)NC2=O)c2ccc(CCCCCNC[C@H]3CC[C@H](NC(=O)[C@@H]4NC5(CCCCC5)[C@@]5(C(=O)Nc6cc(Cl)ccc65)[C@H]4c4cccc(Cl)c4F)CC3)cc21` (stereo partly drawn) [I-125], the IC50 (RS4-11, 24 h, duration 1 day) was < 50 nM.
Same read-out and setting: the same measure for `Cn1c(=O)n(C2CCC(=O)NC2=O)c2cccc(CN3CCC(OC4CCN(Cc5ccc(NC(=O)[C@@H]6NC7(CCCCC7)[C@@]7(C(=O)Nc8cc(Cl)ccc87)[C@H]6c6cccc(Cl)c6F)cc5)CC4)CC3)c21` (stereo partly drawn) [I-139]: < 50 nM; for `CC(C)(C)C[C@@H]1N[C@@H](C(=O)N[C@H]2CC[C@H](CN3CCC(C#Cc4cccn5c(N6CCC(=O)NC6=O)cnc45)CC3)CC2)[C@H](c2cccc(Cl)c2F)[C@@]1(C#N)c1ccc(Cl)cc1F` [I-167]: > 1000 nM.
Same read-out and setting: for `Cn1c(=O)n(C2CCC(=O)NC2=O)c2ccc(N3CCN(C(=O)[C@H]4CC[C@H](NC(=O)[C@@H]5NC6(CCCCC6)[C@@]6(C(=O)Nc7cc(Cl)ccc76)[C@H]5c5cccc(Cl)c5F)CC4)CC3)cc21` (stereo partly drawn) [I-178] the value was < 50 nM.
